Read-outs that look alike come from different tables or passages of the source. Residues, ends and D or L forms follow the SMILES beside them. No end group written: not given here.

Three compounds from PMC3681751, “Identification of a Novel Antimicrobial Peptide from Human Hepatitis B Virus Core Protein Arginine-Rich Domain (ARD)” (PLoS Pathogens, 2013) can be followed below.

For data set [1], the system named is K. pneumonia (ATCC 13884). Format: cell-based, Klebsiella pneumoniae.
Data set [2] concerns P. aeruginosa (ATCC 9027). In kind it is cell-based, Pseudomonas aeruginosa. In outline: (§1)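 Mid-log bacteria at 10^6 CFU/ml in 10 mM sodium phosphate, 50 mM NaCl, pH 7.2, exposed to serially diluted HBc ARD peptides for 3 h at 37 °C without shaking. Mixtures plated on Mueller-Hinton agar overnight to give minimal bactericidal concentration; triplicate tests.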
Data set [3] relates to P. aeruginosa (ATCC 27853). In kind it is cell-based, Pseudomonas aeruginosa. An outline of the steps:
as §1

In data set [4] the test system is E. coli (ATCC 25922). In kind it is cell-based, Escherichia coli. The following applies: triplicate. An outline of the steps:
as §1

The subject of data set [5] is P. aeruginosa. The experiment in a line: SYTOX Green uptake (membrane permeabilization). The following applies: 0.5, 1 and 2 µM, dose-dependent; triplicates. In kind it is cell-based, Pseudomonas aeruginosa. How it is done: Briefly, bacteria (10^7 CFU) were prepared and mixed with 1 µM SYTOX Green (Invitrogen) for 15 minutes in the dark. […] Melittin (Sigma), the major toxin of bee venom, was used as a positive control to provide maximal permeabilization.

Data set [6] concerns HepG2 cells. Nature of the data set: Peptide uptake into mammalian cells. In kind it is cell-based, human. The following applies: peptide added to the medium of HepG2 cells. The method, then:
To set up CFSE cell proliferation assay, 293 cells (human kidney origin) and Vero cells (monkey kidney origin) were resuspended in PBS to a final concentration of 10^6 cells/ml, before incubation with 10 µM CFSE dye (CellTrace CFSE cell proliferation kit, Invitrogen) at 37°C for 10 min. To quench the staining, ice-old culture media were then added and incubated on ice for 5 min. Labeled cells were then pelleted and washed three times by fresh medium containing 10% FBS before seeding into six well plates at a density of 3.3×10^5cells/well. After 20 h, the medium was removed and incubated with fresh medium containing 5, 25 and 100 µM HBc 147-183 for one hour (FITC-labeled ARD peptide had been largely internalized in 10 minutes after the addition of ARD peptides to the medium of HepG2 cells). Forty-eight hours later, cells were harvested and analyzed by flow cytometry (FACSCanto, BD Bioscience).

Data set [7] deals with S. aureus (ATCC 29213). In kind it is cell-based, Staphylococcus aureus. The settings on record: methicillin-resistant strain, triplicate. How it is done:
(§2) The antimicrobial activities of HBc ARD peptides were tested using a number of bacterial strains from ATCC, including Pseudomonas aeruginosa Migula strain (ATCC 27853, ampicillin-resistant), Pseudomonas aeruginosa Migula strain (ATCC 9027, ampicillin-resistant), Klebsiella pneumoniae strain (ATCC 17593), Escherichia coli strain (ATCC 25922), Staphylococcus aureus subsp. strain (ATCC 25923, methicillin-resistant), Staphylococcus aureus subsp. strain (ATCC 29213, methicillin-resistant), Staphylococcus aureus subsp. strain (ATCC 19636, methicillinresistant), and Candida albicans strain (ATCC 10231).
(§3) All peptides were purchased from Yao-Hong Biotechnology Inc. (Taipei, Taiwan). Vendors provided data of peptide characterizations, including HPLC and Mass (data not shown). Antimicrobial activity was determined as described with some modifications as detailed below. Bacteria were grown overnight in Mueller–Hinton broth (Difco) at 37°C, and during the mid-logarithmic phase, bacteria were diluted to 10^6 CFU (colony formation unit)/ml in phosphate buffer (10 mM sodium phosphate and 50 mM sodium chloride, pH 7.2). Peptides were serially diluted in the same buffer. Fifty microliter (µl) of bacteria was mixed with fifty µl of peptides at varying concentrations followed by incubation at 37°C for 3 hours without shaking. At the end of incubation, bacteria were placed on Mueller-Hinton broth agar plates, and allowed growth at 37°C overnight for measurement of minimal bactericidal concentration (MBC). […] All peptides were tested in triplicate.

The subject of data set [8] is S. aureus (ATCC 25923). In kind it is cell-based, Staphylococcus aureus. The settings on record: methicillin-resistant strain, triplicate. The method, then: as §2, §3
Data set [9] has as its system S. aureus (ATCC 19636). In kind it is cell-based, Staphylococcus aureus. The settings on record: methicillin-resistant strain, triplicate. How it is done:
as §2, §3

Data set [10] concerns C. albicans (ATCC 10231). In kind it is cell-based, Candida albicans. The settings on record: fungi, triplicate. The method, then:
as §2, §3

The subject of data set [11] is Vero cells. The experiment in a line: Cytotoxicity, MTT assay. Format: cell-based, monkey. The following applies: 1 hour at 37°C; HBc147-183 at 100 µM, melittin at 3.125 µM; triplicates. The method, then: (§4) Cytotoxicity was measured for HepG2, Huh7, HEK293, and Vero cells by MTT assay. Cells were seeded at 10^4 cells/well in a 96-well plate and serial dilutions of peptides were added into each well. PBS was used as a negative control and melittin was used as a positive control. After 1 hour of incubation, the medium were replaced by fresh medium containing 10% MTT solution (Promega), and the plate was incubated for 4 hours in 5% CO2 at 37°C. The absorbance at the wavelength of 595 nm was measured by an ELISA reader (Bio-Rad model 680).
On the technique in general: Tetrazolium assays rely on reduction of a dye to a coloured formazan, in cell work by metabolically active cells.

Data set [12] has as its system Huh7 cells. Nature of the data set: Cytotoxicity, MTT assay. Format: cell-based, human. The following applies: 1 hour at 37°C; HBc147-183 at 100 µM, melittin at 3.125 µM; triplicates. How it is done:
as §4

Data set [13] has as its system HEK293 cells. The experiment in a line: Cytotoxicity, MTT assay. Format: cell-based, human. The following applies: 1 hour at 37°C; HBc147-183 at 100 µM, melittin at 3.125 µM; triplicates. How it is done: as §4
Data set [14] relates to HepG2 cells. Nature of the data set: Cytotoxicity, MTT assay. Format: cell-based, human. The following applies: 1 hour at 37°C; HBc147-183 at 100 µM, melittin at 3.125 µM; triplicates. How it is done: as §4
Where [15] appears, read: 3 h at 37°C in phosphate buffer pH 7.2, triplicate.
[16] abbreviates: ampicillin-resistant strain, 3 h at 37°C in phosphate buffer pH 7.2, triplicate.
[17] abbreviates: 3 h at 37°C in phosphate buffer pH 7.2.
Setting [18] is: 3 h at 37°C in 10 mM sodium phosphate, 50 mM NaCl, pH 7.2, 10^6 CFU/ml, ND = not detectable.
Setting [19] is: ampicillin-resistant strain, 3 h at 37°C in 10 mM sodium phosphate, 50 mM NaCl, pH 7.2, 10^6 CFU/ml, triplicate, ND = not detectable.

Regarding `C[C@@H](O)[C@H](NC(=O)[C@H](CCCNC(=N)N)NC(=O)[C@H](CCCNC(=N)N)NC(=O)[C@H](CCCNC(=N)N)NC(=O)[C@@H]1CCCN1C(=O)[C@H](CO)NC(=O)[C@H](CCCNC(=N)N)NC(=O)CN)C(=O)N1CCC[C@H]1C(=O)N[C@@H](CO)C(=O)N1CCC[C@H]1C(=O)N[C@@H](CCCNC(=N)N)C(=O)N[C@@H](CCCNC(=N)N)C(=O)N[C@@H](CCCNC(=N)N)C(=O)N[C@@H](CCCNC(=N)N)C(=O)N[C@@H](CO)C(=O)N[C@@H](CCC(N)=O)C(=O)N[C@@H](CO)C(=O)N1CCC[C@H]1C(=O)N[C@@H](CCCNC(=N)N)C(=O)N[C@@H](CCCNC(=N)N)C(=O)N[C@@H](CCCNC(=N)N)C(=O)N[C@@H](CCCNC(=N)N)C(=O)N[C@@H](CO)C(=O)O` [HBc153-176] (H-GRSPRRRTPSPRRRRSQSPRRRRS-OH; N-terminus and C-terminus assumed), the “Antimicrobial activity, MBC” value was more than 96 µg/mL in [1] (setting [15]); more than 32 µM in data set [1] (ATCC 13884, 3 h, pH 7.2); 1 to 2 µM in data set [2] (ATCC 9027, 3 h, pH 7.2); 3 to 6 µg/mL in data set [2] (setting [16]); 1 to 2 µM in [3] (ATCC 27853, 3 h, pH 7.2); 3 to 6 µg/mL in data set [3] (setting [16]). Also, the “Antimicrobial activity, MBC” value in data set [4] (setting [17]) was 48 µg/mL. Besides, the “MBC against P. aeruginosa” value in [2] (summary over the P. aeruginosa strains of Table 1 (ATCC 9027, ATCC 27853)) is “strong activity”. The “Time to membrane permeabilization (SYTOX Green uptake)” value in data set [5] is not above 10 min.
Take “FITC-labeled HBc147-183: FITC-labeled HBc147-183 used for localization by confocal microscopy (TVVRRRGRSPRRRTPSPRRRRSQSPRRRRSQSRESQC; also: FITC label, place not given here; UniProt P03147 147-183, looked up, fragment)”: the “Time after which peptide was largely internalized” value in data set [6] came out at 10 min.
For `CC[C@H](C)[C@H](NC(=O)CN)C(=O)NCC(=O)N[C@@H](C)C(=O)N[C@H](C(=O)N[C@@H](CC(C)C)C(=O)N[C@@H](CCCCN)C(=O)N[C@H](C(=O)N[C@@H](CC(C)C)C(=O)N[C@H](C(=O)N[C@H](C(=O)NCC(=O)N[C@@H](CC(C)C)C(=O)N1CCC[C@H]1C(=O)N[C@@H](C)C(=O)N[C@@H](CC(C)C)C(=O)N[C@H](C(=O)N[C@@H](CO)C(=O)N[C@@H](Cc1c[nH]c2ccccc12)C(=O)N[C@H](C(=O)N[C@@H](CCCCN)C(=O)N[C@@H](CCCNC(=N)N)C(=O)N[C@@H](CCCCN)C(=O)N[C@@H](CCCNC(=N)N)C(=O)N[C@@H](CCC(N)=O)C(=O)N[C@@H](CCC(N)=O)C(N)=O)[C@@H](C)CC)[C@@H](C)CC)[C@@H](C)O)[C@@H](C)O)C(C)C)C(C)C` [Melittin, reference compound], the “Antimicrobial activity, MBC” value in data set [7] (setting [18]) turned out to be 1 µM; in [7] (setting [17]) it was 2.85 µg/mL; in data set [8] (setting [18]), 2 µM; in data set [8] (setting [17]) it was 5.7 µg/mL; in data set [9] (setting [18]), 1 µM; in data set [9] (setting [17]), 2.85 µg/mL. In addition, the “Antimicrobial activity, MBC” value amounted to 2 µM in data set [1] (3 h at 37°C in 10 mM sodium phosphate, 50 mM NaCl, pH 7.2, 10^6 CFU/ml, triplicate, ND = not detectable); 5.7 µg/mL in data set [1] (setting [15]); 4 µM in data set [10] (3 h at 37°C in 10 mM sodium phosphate, 50 mM NaCl, pH 7.2, ND = not detectable); 11.4 µg/mL in data set [10] (setting [17]); 2 µM in [2] (setting [19]); 5.7 µg/mL in data set [2] (setting [16]). Besides, the “Antimicrobial activity, MBC” value was 2 µM in data set [3] (setting [19]), 5.7 µg/mL in data set [3] (setting [16]), 2 µM in data set [4] (setting [18]) and 5.7 µg/mL in data set [4] (setting [17]). Also, the “Cell viability / cytotoxicity (MTT)” value in [11], in data set [12], in [13] and in data set [14] was “significantly decreased” throughout.
